Test results as given in patent US7208502B2, “Methods of treating conditions associated with an Edg-3 receptor” (Maniv Energy Capital, priority 2002, dated 2007).

Key:
Edg-4 = biological target: T1, Edg-4 (Homo sapiens, UniProt Q9HBW0); test: Intracellular calcium assay, LPA-stimulated, HTC cells expressing Edg-4; assay type: cell-based; conditions: concentrations as high as 20 µM
T1 construct: expressed in transfected cells; host or cells: HTC rat hepatoma cells

Edg-6 = biological target: T2, Edg-6 (Homo sapiens, UniProt O95977); test: Intracellular calcium assay, S1P-stimulated, HTC cells expressing Edg-6; assay type: cell-based; conditions: concentrations as high as 20 µM
T2 construct: expressed in transfected cells; host or cells: HTC rat hepatoma cells
T2 sequence (O95977 1-384): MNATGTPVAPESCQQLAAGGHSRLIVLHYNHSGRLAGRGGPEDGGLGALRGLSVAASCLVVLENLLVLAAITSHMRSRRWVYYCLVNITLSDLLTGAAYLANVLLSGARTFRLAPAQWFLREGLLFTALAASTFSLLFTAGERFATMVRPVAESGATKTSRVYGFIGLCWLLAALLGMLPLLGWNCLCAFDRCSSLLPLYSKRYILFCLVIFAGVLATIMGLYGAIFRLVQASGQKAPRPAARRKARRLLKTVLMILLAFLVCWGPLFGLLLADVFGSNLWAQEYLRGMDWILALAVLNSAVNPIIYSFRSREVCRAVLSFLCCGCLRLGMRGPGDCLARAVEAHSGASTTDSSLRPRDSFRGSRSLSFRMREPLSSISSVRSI

[1] = tested on: Adrenergic α1, non-selective; test: Radioligand binding assay, 3H Prazosin; parameters: species or system Wistar Rat; conditions: 10 μM; significance criteria ≧50% of max stimulation or inhibition
Protocol: (§1) In order to test the selectivity of compounds, various enzyme assays as well as radioligand binding assays were performed using numerous non-Edg receptor targets as listed below.
(§2) A radioligand binding assay was performed using adrenergic α1 according to the method of Greengrass and Bremner 1979, Eur. J. Pharmacol. 55:323–326. A radioligand binding assay was performed using adrenergic α2 according to the method of Boyajian and Leslie, 1987, J. Pharmacol. Exp. Ther. 241:1092–1098. A radioligand binding assay was performed using adrenergic β according to the method of Feve et al., 1994, Proc. Natl. Acad. Sci. USA 91:5677–5681. A radioligand binding assay was performed using angiotensin AT2 according to the method of Whitebread et al., 1991, Biochem. Biophys. Res. Comm. 181:1365–1371. A radioligand binding assay was performed using calcium channel Type L, dihydropyridine according to the method of Ehlert et al., 1982, Life Sci. 30:2191–2202. A radioligand binding assay was performed using dopamine D2L according to the method of Bunzo et al., 1988, Nature 336:783–787. A radioligand binding assay was performed using endothelin ETA according to the method of Mihara et al., 1994, J. Phrmacol. Exp Ther. 268:1122–1127. A radioligand binding assay was performed using histamine H1 Central according to the method of Hill et al., 1978, J. Neurochem. 31:997–1004. […]
(§3) Quantitation Method: Radioligand Binding […]

Adrenergic α2 = test: Radioligand binding assay, 3H Rauwolscine; parameters: species or system Wistar rat; conditions: 10 μM; significance criteria ≧50% of max stimulation or inhibition
Protocol: as §1, §2, §3

Endothelin ETA = biological target: T3, Endothelin ETA (Homo sapiens, UniProt P25101); test: Radioligand binding assay, 125I Endothelin; conditions: 10 μM; significance criteria ≧50% of max stimulation or inhibition
T3 construct: expressed in transfected cells; host or cells: CHO cells
T3 sequence (P25101 21-427): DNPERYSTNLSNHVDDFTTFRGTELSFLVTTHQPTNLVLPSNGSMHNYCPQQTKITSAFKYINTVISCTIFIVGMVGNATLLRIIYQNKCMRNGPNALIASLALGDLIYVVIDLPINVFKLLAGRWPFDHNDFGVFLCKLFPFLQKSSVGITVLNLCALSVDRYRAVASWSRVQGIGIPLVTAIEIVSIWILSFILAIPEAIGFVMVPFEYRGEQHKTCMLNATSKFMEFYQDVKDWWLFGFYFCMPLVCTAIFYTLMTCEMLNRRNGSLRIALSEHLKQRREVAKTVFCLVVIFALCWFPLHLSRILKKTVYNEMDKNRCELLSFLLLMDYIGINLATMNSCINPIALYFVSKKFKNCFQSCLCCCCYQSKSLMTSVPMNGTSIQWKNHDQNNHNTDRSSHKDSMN
Protocol: as §1, §2, §3

[2] = tested on: Muscarinic non-selective, Central; test: Radioligand binding assay, 3H Quinuclidinyl benzilate; parameters: species or system Wistar rat; conditions: 10 μM; significance criteria ≧50% of max stimulation or inhibition
Protocol: as §1, §2, §3

T1 sequence (Q9HBW0 whole entry): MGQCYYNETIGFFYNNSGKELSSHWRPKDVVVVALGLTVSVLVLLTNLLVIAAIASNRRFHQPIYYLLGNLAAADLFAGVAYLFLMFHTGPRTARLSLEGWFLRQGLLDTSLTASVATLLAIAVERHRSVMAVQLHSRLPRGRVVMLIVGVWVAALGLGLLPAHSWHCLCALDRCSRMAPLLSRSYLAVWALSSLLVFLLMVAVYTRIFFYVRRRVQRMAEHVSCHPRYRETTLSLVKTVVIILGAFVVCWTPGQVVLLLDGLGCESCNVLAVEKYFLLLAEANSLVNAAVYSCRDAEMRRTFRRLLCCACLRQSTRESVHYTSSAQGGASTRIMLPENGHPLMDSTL

## Cc1c(-c2ccccc2)nc2ccccc2c1C(=O)NCc1ccc(F)cc1 [Compound 101, 3-methyl-2-phenyl-quinoline-4-carboxylic acid 4-fluoro-benzylamide]
Edg-4
  inhibition of LPA-stimulated calcium increases, Edg-4: did not inhibit
Edg-6
  inhibition of S1P-stimulated calcium increases, Edg-6: did not inhibit
[1]
  activity in standard binding assay, Adrenergic α1: no activity
Adrenergic α2
  activity in standard binding assay, Adrenergic α2: no activity
Endothelin ETA
  activity in standard binding assay, Endothelin ETA: no activity
[2]
  activity in standard binding assay, Muscarinic non-selective, Central: no activity
